Data on 30 molecules can be found in patent publication US20090247559A1 (Exelixis, Inc., priority 2007, published 2009).

One assay deals with CK2 (Homo sapiens, UniProt P68400). The experiment in a line: CK2 inhibition, biochemical chemiluminescence holoenzyme assay (Kinase Glo, IC50 determination). Particulars: Table 1 activity class; symbol given only if active; read-out: CK2 IC50 (Activity C). In short, it runs like this:
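Holoenzyme CK2 assay; compounds pre-incubated with substrate and enzyme, then reacted 150 min at 24-27° C. Remaining ATP measured as luminescence with Kinase Glo, and IC50 derived from the signal.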

Assay [1] has as its target PIM (PIM-1, PIM-2, and/or PIM-3). The assay is described as follows: PIM-1, PIM-2 and PIM-3 inhibition, biochemical chemiluminescence assays (Kinase Glo, IC50 determination). The settings on record: Table 1 activity class; PIM refers to PIM-1, PIM-2, and/or PIM-3; read-out: PIM IC50 (Activity B). On the technique in general: In Kinase-Glo more light means more ATP remaining.

Molecules are shown by their SMILES.

Chain of CK2 (P68400 whole entry): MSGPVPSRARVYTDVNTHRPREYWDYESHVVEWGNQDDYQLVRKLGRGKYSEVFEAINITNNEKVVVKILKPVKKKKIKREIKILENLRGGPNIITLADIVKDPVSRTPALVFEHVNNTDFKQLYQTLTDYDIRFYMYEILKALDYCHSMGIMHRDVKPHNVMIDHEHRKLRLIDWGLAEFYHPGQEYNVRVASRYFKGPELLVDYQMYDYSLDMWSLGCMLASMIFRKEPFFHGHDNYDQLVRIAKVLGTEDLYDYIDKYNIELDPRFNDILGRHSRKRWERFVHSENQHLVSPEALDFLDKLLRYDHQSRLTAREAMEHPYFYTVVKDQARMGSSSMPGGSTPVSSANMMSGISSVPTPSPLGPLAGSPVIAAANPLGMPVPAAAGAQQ
Chain of CK2 (P67870 whole entry partner): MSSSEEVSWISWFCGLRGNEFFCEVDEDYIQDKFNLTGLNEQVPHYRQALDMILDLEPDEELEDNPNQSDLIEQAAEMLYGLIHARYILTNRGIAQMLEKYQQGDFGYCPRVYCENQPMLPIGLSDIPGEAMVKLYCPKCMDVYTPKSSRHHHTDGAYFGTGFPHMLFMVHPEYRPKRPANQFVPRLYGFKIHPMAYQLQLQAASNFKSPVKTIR

For the molecule `O=C(Nc1ccc(-c2nc3c(oc4ccc(Br)cc43)c(=O)[nH]2)c(Cl)c1)c1ccc(CO)cn1` [Compound 345, N-[4-(8-bromo-4-oxo-3,4-dihydro[1]benzofuro[3,2-d]pyrimidin-2-yl)-3-chlorophenyl]-5-(hydroxymethyl)pyridine-2-carboxamide], the IC50 (at CK2; in assay [1]) was less than 10 µM throughout.

For `Cn1nc(OC2CCNCC2)cc1-c1nc2c(oc3ccc(Br)cc32)c(=O)[nH]1` [Compound 351, 8-Bromo-2-[1-methyl-3-(piperidin-4-yloxy)-1H-pyrazol-5-yl][1]benzofuro[3,2-d]pyrimidin-4(3H)-one], the half-inhibitory concentration (IC50) (at CK2; in assay [1]) was less than 10 µM each time.

As for `NCc1nc(-c2nc3c(oc4ccc(Br)cc43)c(=O)[nH]2)cs1` [Compound 352, 2-[2-(Aminomethyl)-1,3-thiazol-4-yl]-8-bromo[1]benzofuro[3,2-d]pyrimidin-4(3H)-one], the IC50 (at CK2; in assay [1]) was less than 10 µM in each case.

On to `Nc1ccc(-c2nc3c(oc4ccc(Br)cc43)c(=O)[nH]2)cc1` [Compound 354, 2-(4-Aminophenyl)-8-bromo[1]benzofuro[3,2-d]pyrimidin-4(3H)-one], for which the IC50 (at CK2; in assay [1]) was less than 10 µM throughout.

Consider `Nc1cccc(-c2nc3c(oc4ccc(Br)cc43)c(=O)[nH]2)c1` [Compound 355, 2-(3-Aminophenyl)-8-bromo[1]benzofuro[3,2-d]pyrimidin-4(3H)-one], for which the concentration for half-maximal inhibition (IC50) (on CK2; in assay [1]) was less than 10 µM in each case.

As for `CC(=O)Nc1ccc(C(=O)Nc2ccc(Cl)c(-c3nc4c(oc5ccc(Br)cc54)c(=O)[nH]3)c2)cc1` [Compound 356, 4-(acetylamino)-N-[3-(8-bromo-4-oxo-3,4-dihydro[1]benzofuro[3,2-d]pyrimidin-2-yl)-4-chlorophenyl]benzamide], the IC50 (at CK2; in assay [1]) was less than 10 µM throughout.

On to `CN(C)Cc1ccc(-c2nc3c(oc4ccc(Br)cc43)c(=O)[nH]2)cc1` [Compound 358, 8-Bromo-2-{4-[(dimethylamino)methyl]phenyl}[1]benzofuro[3,2-d]pyrimidin-4(3H)-one], for which the IC50 (on CK2; in assay [1]) was less than 10 µM in each case.

As for `O=c1[nH]c(-c2ccc(OCC3CNCCO3)cc2)nc2c1oc1ccc(Br)cc12` (stereo not drawn) [Compound 359, 8-Bromo-2-{4-[(morpholin-2-ylmethyl)oxy]phenyl}[1]benzofuro[3,2-d]pyrimidin-4(3H)-one], the half-inhibitory concentration (IC50) (on CK2; in assay [1]) was less than 10 µM throughout.

With `O=C(Nc1ccc(-c2nc3c(oc4ccc(Br)cc43)c(=O)[nH]2)cc1)c1ccncc1` [Compound 360, N-[4-(8-bromo-4-oxo-3,4-dihydro[1]benzofuro[3,2-d]pyrimidin-2-yl)phenyl]pyridine-4-carboxamide], the IC50 (at CK2; in assay [1]) was less than 10 µM in each case.

Take `O=C(Nc1ccc(Cl)c(-c2nc3c(oc4ccc(Br)cc43)c(=O)[nH]2)c1)C1CCOC1` (stereo not drawn) [Compound 361, N-[3-(8-bromo-4-oxo-3,4-dihydro[1]benzofuro[3,2-d]pyrimidin-2-yl)-4-chlorophenyl]tetrahydrofuran-3-carboxamide]: the IC50 (on CK2; in assay [1]) was less than 10 µM in each case.

Consider `CC(=O)N[C@H]1CCN(Cc2nc3c(oc4ccc(Br)cc43)c(=O)[nH]2)C1` [Compound 365, N-{(3S)-1-[(8-bromo-4-oxo-3,4-dihydro[1]benzofuro[3,2-d]pyrimidin-2-yl)methyl]pyrrolidin-3-yl}acetamide], for which the IC50 (at CK2; in assay [1]) was less than 10 µM each time.

Take `O=C(Nc1ccc(Cl)c(-c2nc3c(oc4ccc(Br)cc43)c(=O)[nH]2)c1)c1ccccc1` [Compound 371, N-[3-(8-bromo-4-oxo-3,4-dihydro[1]benzofuro[3,2-d]pyrimidin-2-yl)-4-chlorophenyl]benzamide]: the concentration for half-maximal inhibition (IC50) (at CK2; in assay [1]) was less than 10 µM in each case.

On to `O=C(Nc1ccc(Cl)c(-c2nc3c(oc4ccc(Br)cc43)c(=O)[nH]2)c1)c1ccno1` [Compound 372, N-[3-(8-bromo-4-oxo-3,4-dihydro[1]benzofuro[3,2-d]pyrimidin-2-yl)-4-chlorophenyl]isoxazole-5-carboxamide], for which the half-inhibitory concentration (IC50) (at CK2; in assay [1]) was less than 10 µM throughout.

Take `NC[C@H]1CC[C@H](c2nc3c(oc4ccc(Br)cc43)c(=O)[nH]2)CC1` [Compound 376, 2-[trans-4-(Aminomethyl)cyclohexyl]-8-bromo[1]benzofuro[3,2-d]pyrimidin-4(3H)-one]: the IC50 (at CK2; in assay [1]) was less than 10 µM in each case.

For `CNCc1ccc(-c2nc3c(oc4ccc(Br)cc43)c(=O)[nH]2)cc1` [Compound 382, 8-bromo-2-{4-[(methylamino)methyl]phenyl}[1]benzofuro[3,2-d]pyrimidin-4(3H)-one], the IC50 (on CK2; in assay [1]) was less than 10 µM in each case.

For `O=C(Nc1ccc(-c2nc3c(oc4ccc(Br)cc43)c(=O)[nH]2)c(Cl)c1)c1ccc(-n2cccn2)nc1` [Compound 396, N-[4-(8-bromo-4-oxo-3,4-dihydro[1]benzofuro[3,2-d]pyrimidin-2-yl)-3-chlorophenyl]-6-(1H-pyrazol-1-yl)pyridine-3-carboxamide], the half-inhibitory concentration (IC50) (on CK2; in assay [1]) was less than 10 µM each time.

As for `O=C(Nc1ccc(-c2nc3c(oc4ccc(Br)cc43)c(=O)[nH]2)c(Cl)c1)c1cnc2ccccc2n1` [Compound 397, N-[4-(8-bromo-4-oxo-3,4-dihydro[1]benzofuro[3,2-d]pyrimidin-2-yl)-3-chlorophenyl]quinoxaline-2-carboxamide], the half-maximal inhibitory concentration (IC50) (on CK2; in assay [1]) was less than 10 µM in each case.

In the case of `O=c1[nH]c(CN2CCC[C@@H](O)C2)nc2c1oc1ccc(Br)cc12` [Compound 402, 8-bromo-2-{[(3R)-3-hydroxypiperidin-1-yl]methyl}[1]benzofuro[3,2-d]pyrimidin-4(3H)-one], the IC50 (on CK2; in assay [1]) was less than 10 µM each time.

With `CC(O)CN(Cc1nc2c(oc3ccc(Br)cc32)c(=O)[nH]1)CC(C)O` (stereo not drawn) [Compound 403, 2-{[bis(2-hydroxypropyl)amino]methyl}-8-bromo[1]benzofuro[3,2-d]pyrimidin-4(3H)-one], the IC50 (at CK2; in assay [1]) was less than 10 µM in each case.

For the molecule `O=C(Nc1ccc(-c2nc3c(oc4ccc(Br)cc43)c(=O)[nH]2)c(Cl)c1)c1ccc2cccnc2n1` [Compound 405, N-[4-(8-bromo-4-oxo-3,4-dihydro[1]benzofuro[3,2-d]pyrimidin-2-yl)-3-chlorophenyl]-1,8-naphthyridine-2-carboxamide], the IC50 (on CK2; in assay [1]) was less than 10 µM in each case.

As to `CN(Cc1nc2c(oc3ccc(Br)cc32)c(=O)[nH]1)CC(O)CO` (stereo not drawn) [Compound 409, 8-bromo-2-{[(2,3-dihydroxypropyl)(methyl)amino]methyl}[1]benzofuro[3,2-d]pyrimidin-4(3H)-one], the 50% inhibitory concentration (IC50) (at CK2; in assay [1]) was less than 10 µM throughout.

As for `O=c1[nH]c(CN(CCO)CCO)nc2c1oc1ccc(Br)cc12` [Compound 410, 2-{[bis(2-hydroxyethyl)amino]methyl}-8-bromo[1]benzofuro[3,2-d]pyrimidin-4(3H)-one], the IC50 (on CK2; in assay [1]) was less than 10 µM in each case.

Consider `O=C(NCc1ccccc1Cl)C1(O)CCN(Cc2nc3c(oc4ccc(Br)cc43)c(=O)[nH]2)C1` (stereo not drawn) [Compound 411, ′1-[(8-bromo-4-oxo-3,4-dihydro[1]benzofuro[3,2-d]pyrimidin-2-yl)methyl]-N-[(2-chlorophenyl)methyl]-3-hydroxypyrrolidine-3-carboxamide], for which the concentration for half-maximal inhibition (IC50) (on CK2; in assay [1]) was less than 10 µM throughout.

Turning to `O=C(Nc1ccncc1)Nc1ccc(-c2nc3c(oc4ccc(Br)cc43)c(=O)[nH]2)c(Cl)c1` [Compound 415, 1-[4-(8-bromo-4-oxo-3,4-dihydro[1]benzofuro[3,2-d]pyrimidin-2-yl)-3-chlorophenyl]-3-pyridin-4-ylurea], the 50% inhibitory concentration (IC50) (on CK2; in assay [1]) was less than 10 µM each time.

With `Cc1ccc2oc3c(=O)[nH]c(CN4CC[C@H](O)C4)nc3c2c1[N+](=O)O` [Compound 424, hydroxy(2-{[(3S)-3-hydroxypyrrolidin-1-yl]methyl}-8-methyl-4-oxo-3,4-dihydro[1]benzofuro[3,2-d]pyrimidin-9-yl)oxoammonium], the IC50 (on CK2; in assay [1]) was less than 10 µM each time.

Regarding `COc1cc2oc3c(=O)[nH]c(CN4CC[C@H](O)C4)nc3c2cc1Br` [Compound 436, 8-bromo-2-{[(3S)-3-hydroxypyrrolidin-1-yl]methyl}-7-(methyloxy)[1]benzofuro[3,2-d]pyrimidin-4(3H)-one], the IC50 (at CK2; in assay [1]) was less than 10 µM in each case.

As to `O=c1[nH]c(-c2ccc3c(NCC4CCNCC4)n[nH]c3c2)nc2c1oc1ccc(Br)cc12` [Compound 441, 8-bromo-2-{3-[(piperidin-4-ylmethyl)amino]-1H-indazol-6-yl}[1]benzofuro[3,2-d]pyrimidin-4(3H)-one], the concentration for half-maximal inhibition (IC50) (at CK2; in assay [1]) was less than 10 µM throughout.

As to `O=c1[nH]c(CN2CC[C@H](O)C2)nc2c1oc1ccc(NCc3ccccc3)cc12` [Compound 443, 2-{[(3S)-3-hydroxypyrrolidin-1-yl]methyl}-8-[(phenylmethyl)amino][1]benzofuro[3,2-d]pyrimidin-4(3H)-one], the IC50 (at CK2; in assay [1]) was less than 10 µM throughout.

Consider `COc1cccc(CCNc2ccc3oc4c(=O)[nH]c(CN5CC[C@H](O)C5)nc4c3c2)c1OC` [Compound 445, 8-({2-[2,3-bis(methyloxy)phenyl]ethyl}amino)-2-{[(3S)-3-hydroxypyrrolidin-1-yl]methyl}[1]benzofuro[3,2-d]pyrimidin-4(3H)-one], for which the IC50 (on CK2; in assay [1]) was less than 10 µM throughout.

On to `CCCCNc1ccc2oc3c(=O)[nH]c(CN4CC[C@H](O)C4)nc3c2c1` [Compound 446, 8-(butylamino)-2-{[(3S)-3-hydroxypyrrolidin-1-yl]methyl}[1]benzofuro[3,2-d]pyrimidin-4(3H)-one], for which the 50% inhibitory concentration (IC50) (at CK2; in assay [1]) was less than 10 µM each time.
